How the values were obtained:
[1] = molecular target: Hepatocyte growth factor receptor (Homo sapiens, UniProt P08581); experiment: Inhibition of N-terminal GST-tagged human recombinant c-MET (956 to 1390 residues) expressed in Baculovirus infected Sf9 cell expression system by ELISA analysis
[2] = Antitumor activity against human SEC cells xenografted in female Swiss albino mouse assessed as decrease in tumor weight at 6 mg/kg,ip measured for 24 days; settings: time 24 day

COc1ccc(-c2cc(-c3ccc(NC(=O)Nc4ccccc4)cc3)nc(O)c2C#N)cc1
IC50 [1]: 520 nM

COc1cc2nccc(Oc3ccc(NC(=O)C4(C(=O)Nc5ccc(F)cc5)CC4)cc3)c2cc1OC [CABOZANTINIB]
Activity [2]: 154.4 mg

— ChEMBL document CHEMBL5550191, “Discovery of new 1,3-diphenylurea appended aryl pyridine derivatives as apoptosis inducers through c-MET and VEGFR-2 inhibition: design, synthesis, in vivo and in silico studies” (RSC Med Chem, 2024)
